Data published in article PMC3526545, “New perspectives for natural antimicrobial peptides: application as antinflammatory drugs in a murine model” (BMC Immunology, 2012).
Several values for one entry are separate records, joined by “and”; a condition that tells them apart may be missing. Equal values may be shown once.

Experiments:
[1] = tested on: Staphylococcus epidermidis strains; assay: % inhibition of bacterial growth by the MIX and its components; type: cell-based; conditions: MIX = both
Experimental: (§1) Antibacterial activity of the peptides used in this work was evaluated as described previously. […] The fractional inhibitory concentration (FIC) index for combinations of two peptides was calculated according to the equation: FIC index = […] = A/MICA + B/MICB , where A and B are the MICs of drug A and drug B in the combination, MICA and MICB are the MICs of drug A and drug B alone, and FICA and FICB are the FICs of drug A and drug B. The FIC indices were interpreted as follows: ≤0.5, synergy; 0.51-4.0, no interaction; > 4.0, antagonism. The growth inhibition percentages of Staphylococcus epidermidis and probiotic strains were assessed under the same conditions.

J774 cells = assay: Nitrite (NO2-) formation in J774 cells, Griess reaction; type: cell-based, mouse
[2] = tested on: Staphylococcus epidermidis strains; assay: Antibacterial activity of AMPs (MIC100) and synergism (FIC index); type: cell-based; conditions: against Staphylococcus epidermidis strains, single agent
Experimental: as §1, with “antagonism.” for “antagonism. The growth inhibition percentages of Staphylococcus epidermidis and probiotic strains were assessed under the same conditions.”

## KKYLLPI VGNLLKSLL-NH2 [TB-KK, analogue of the temporin B]
[1]; strain 2/2, RJI-C 9 μg/ml, TB-KK 6 μg/ml
  % inhibition of bacterial growth: 23 ± 0.5%
[1]; strain 3/28, RJI-C 9 μg/ml (7.3 μM), TB-KK 6 μg/ml (2.6 μM)
  % inhibition of bacterial growth: 19 ± 2%
[1]; strain 5/6, RJI-C 9 μg/ml, TB-KK 6 μg/ml
  % inhibition of bacterial growth: 10 ± 1%
[1]; strain 5/8, RJI-C 9 μg/ml, TB-KK 6 μg/ml
  % inhibition of bacterial growth: 21 ± 2%
[1]; strain 5/25, RJI-C 9 μg/ml, TB-KK 6 μg/ml
  % inhibition of bacterial growth: 21 ± 1%
[1]; strain 9/1, RJI-C 9 μg/ml, TB-KK 6 μg/ml
  % inhibition of bacterial growth: 26 ± 2%
[1]; strain 10/28, RJI-C 9 μg/ml, TB-KK 6 μg/ml
  % inhibition of bacterial growth: 4 ± 1%
[1]; strain 12/14, RJI-C 9 μg/ml, TB-KK 6 μg/ml
  % inhibition of bacterial growth: 20 ± 3%
[1]; strain 12/26, RJI-C 9 μg/ml, TB-KK 6 μg/ml
  % inhibition of bacterial growth: 14 ± 2%
J774 cells
  NO2- production of J774 cells: 0.82 ± 0.05 μmol/10^6 cells and 1.25 ± 0.2 μmol/10^6 cells and 1.34 ± 0.2 μmol/10^6 cells
  NO2- synthesis in LPS-stimulated J774 cells, in words: reduced NO2^- synthesis
[2]; 10^5 CFU/well
  MIC100: 7 µg/mL
[2]; value in brackets
  MIC: 3 µM
